Key:
Assay in all cases: Post-emergence test, weed control effect
Assay type in all cases: in vivo
Details in all cases: after 3 weeks
Veronica polita = tested on: Veronica polita
Source text: (§1) The activity level standard of harmful plant destruction (i.e. growth inhibition rate) is as follows: • Level 10: completely dead; • Level 9: above 90% growth inhibition rate; • Level 8: above 80% growth inhibition rate; • Level 7: above 70% growth inhibition rate; • Level 6: above 60% growth inhibition rate; • Level 5: above 50% growth inhibition rate; • Level 4: above 40% growth inhibition rate; • Level 3: above 30% growth inhibition rate; • Level 2: above 20% growth inhibition rate; • Level 1: below 20% growth inhibition rate; • Level 0: no effect.
(§2) The above described growth inhibition rates are fresh weight inhibition rates.
(§3) Experiment of post-emergence test: monocotyledonous and dicotyledonous weed seeds as well as main crop seeds (i.e., wheat, corn, rice, soybean, cotton, oilseed rape, millet and sorghum) were put into a plastic pot loaded with soil, then covered with 0.5-2 cm of soil, and the seeds were allowed to grow in good greenhouse environment. The test plants were treated at 2-3 leaf stage 2-3 weeks after sowing. The test compounds of the invention were dissolved in acetone respectively, then added with Tween-80 and diluted by a certain amount of water to give solutions with certain concentrations, and added with 80% vegetable oil methyl ester synergist at 1500 g/ha. The solution was sprayed to the plants with a sprayer. The plants were cultured for 3 weeks in the greenhouse.

Chenopodiaceae = tested on: Chenopodiaceae
Source text: as §1, §2, §3

Amaranthus retroflexus = tested on: Amaranthus retroflexus
Source text: as §1, §2, §3

Rorippa indica = tested on: Rorippa indica
Source text: as §1, §2, §3

CS(=O)(=O)c1ccc(-c2nnc(C(F)(F)F)cc2O)cc1 [Compound 114]
10: weed control effect (activity level), Veronica polita (Veronica polita; dose 1000 g/ha) | weed control effect (activity level), Chenopodiaceae (Chenopodiaceae; dose 1000 g/ha) | weed control effect (activity level), Amaranthus retroflexus (Amaranthus retroflexus; dose 1000 g/ha) | weed control effect (activity level), Rorippa indica (Rorippa indica; dose 1000 g/ha)

CCCCOC(=S)Oc1cc(C(F)(F)F)nnc1-c1ccc(F)c(F)c1 [Compound 1-157]
10: weed control effect, Veronica polita (activity level) (Veronica polita; Dose 3000 g/ha) | weed control effect, Chenopodiaceae (activity level) (Chenopodiaceae; Dose 3000 g/ha) | weed control effect, Amaranthus retroflexus (activity level) (Amaranthus retroflexus; Dose 3000 g/ha) | weed control effect, Rorippa indica (activity level) (Rorippa indica; Dose 3000 g/ha)

COC(=O)CCCCC(=O)Oc1cc(C(F)(F)F)nnc1-c1ccc(F)cc1 [Compound 1-70]
10: weed control effect, Veronica polita (activity level) (Veronica polita; Dose 3000 g/ha) | weed control effect, Chenopodiaceae (activity level) (Chenopodiaceae; Dose 3000 g/ha) | weed control effect, Amaranthus retroflexus (activity level) (Amaranthus retroflexus; Dose 3000 g/ha) | weed control effect, Rorippa indica (activity level) (Rorippa indica; Dose 3000 g/ha)

Oc1cc(C(F)(F)F)nnc1-c1ccc(C(F)(F)F)cc1Cl [Compound 769]
10: weed control effect (activity level), Veronica polita (Veronica polita; Dose 3000 g/ha) | weed control effect (activity level), Chenopodiaceae (Chenopodiaceae; Dose 3000 g/ha) | weed control effect (activity level), Amaranthus retroflexus (Amaranthus retroflexus; Dose 3000 g/ha) | weed control effect (activity level), Rorippa indica (Rorippa indica; Dose 3000 g/ha)

Oc1cc(C(F)(F)F)nnc1-c1cc(F)cnc1F [Compound 986]
10: weed control effect (activity level), Veronica polita (Veronica polita; Dose 3000 g/ha) | weed control effect (activity level), Chenopodiaceae (Chenopodiaceae; Dose 3000 g/ha) | weed control effect (activity level), Amaranthus retroflexus (Amaranthus retroflexus; Dose 3000 g/ha) | weed control effect (activity level), Rorippa indica (Rorippa indica; Dose 3000 g/ha)

O=S(=O)(Oc1cc(C(F)(F)F)nnc1-c1ccc(F)c(F)c1)c1ccc2ncsc2c1 [Compound 1-147]
10: weed control effect, Veronica polita (activity level) (Veronica polita; Dose 3000 g/ha) | weed control effect, Chenopodiaceae (activity level) (Chenopodiaceae; Dose 3000 g/ha) | weed control effect, Amaranthus retroflexus (activity level) (Amaranthus retroflexus; Dose 3000 g/ha) | weed control effect, Rorippa indica (activity level) (Rorippa indica; Dose 3000 g/ha)

CCS(=O)Oc1cc(C(F)(F)F)nnc1-c1ccc(F)c(F)c1 (stereo not shown) [Compound 1-165]
10: weed control effect, Veronica polita (activity level) (Veronica polita; Dose 3000 g/ha) | weed control effect, Chenopodiaceae (activity level) (Chenopodiaceae; Dose 3000 g/ha) | weed control effect, Amaranthus retroflexus (activity level) (Amaranthus retroflexus; Dose 3000 g/ha) | weed control effect, Rorippa indica (activity level) (Rorippa indica; Dose 3000 g/ha)

Oc1cc(C(F)(F)F)nnc1-c1cncc(F)c1F [Compound 990]
10: weed control effect (activity level), Veronica polita (Veronica polita; Dose 3000 g/ha) | weed control effect (activity level), Chenopodiaceae (Chenopodiaceae; Dose 3000 g/ha) | weed control effect (activity level), Amaranthus retroflexus (Amaranthus retroflexus; Dose 3000 g/ha) | weed control effect (activity level), Rorippa indica (Rorippa indica; Dose 3000 g/ha)

Oc1cc(C(F)(F)F)nnc1-c1ccc(Cl)c(Cl)c1Cl [Compound 753]
10: weed control effect (activity level), Veronica polita (Veronica polita; Dose 3000 g/ha) | weed control effect (activity level), Chenopodiaceae (Chenopodiaceae; Dose 3000 g/ha) | weed control effect (activity level), Amaranthus retroflexus (Amaranthus retroflexus; Dose 3000 g/ha) | weed control effect (activity level), Rorippa indica (Rorippa indica; Dose 3000 g/ha)

O=S(Oc1cc(C(F)(F)F)nnc1-c1ccc(F)cc1)C(F)(F)F (stereo not shown) [Compound 1-166]
10: weed control effect, Veronica polita (activity level) (Veronica polita; Dose 3000 g/ha) | weed control effect, Chenopodiaceae (activity level) (Chenopodiaceae; Dose 3000 g/ha) | weed control effect, Amaranthus retroflexus (activity level) (Amaranthus retroflexus; Dose 3000 g/ha) | weed control effect, Rorippa indica (activity level) (Rorippa indica; Dose 3000 g/ha)

Cc1cc(Cl)ccc1-c1nnc(C(F)(F)F)cc1O [Compound 71]
10: weed control effect (activity level), Veronica polita (Veronica polita; dose 1000 g/ha) | weed control effect (activity level), Chenopodiaceae (Chenopodiaceae; dose 1000 g/ha) | weed control effect (activity level), Amaranthus retroflexus (Amaranthus retroflexus; dose 1000 g/ha) | weed control effect (activity level), Rorippa indica (Rorippa indica; dose 1000 g/ha)

Oc1cc(C(F)(F)F)nnc1-c1cc(Cl)c(-c2ccccc2)c(Cl)c1 [Compound 168]
10: weed control effect (activity level), Veronica polita (Veronica polita; dose 2000 g/ha) | weed control effect (activity level), Chenopodiaceae (Chenopodiaceae; dose 2000 g/ha) | weed control effect (activity level), Amaranthus retroflexus (Amaranthus retroflexus; dose 2000 g/ha) | weed control effect (activity level), Rorippa indica (Rorippa indica; dose 2000 g/ha)

COc1ccc(F)cc1-c1nnc(C(F)(F)F)cc1O [Compound 60]
10: weed control effect (activity level), Veronica polita (Veronica polita; dose 1000 g/ha) | weed control effect (activity level), Chenopodiaceae (Chenopodiaceae; dose 1000 g/ha) | weed control effect (activity level), Amaranthus retroflexus (Amaranthus retroflexus; dose 1000 g/ha) | weed control effect (activity level), Rorippa indica (Rorippa indica; dose 1000 g/ha)

Cn1ncc(C#N)c1-c1nnc(C(F)(F)F)cc1O [Compound 820]
10: weed control effect (activity level), Veronica polita (Veronica polita; Dose 3000 g/ha) | weed control effect (activity level), Chenopodiaceae (Chenopodiaceae; Dose 3000 g/ha) | weed control effect (activity level), Amaranthus retroflexus (Amaranthus retroflexus; Dose 3000 g/ha) | weed control effect (activity level), Rorippa indica (Rorippa indica; Dose 3000 g/ha)

CS(=O)(=O)c1ccc(S(=O)(=O)Oc2cc(C(F)(F)F)nnc2-c2ccc(F)cc2)cc1 [Compound 1-137]
10: weed control effect, Veronica polita (activity level) (Veronica polita; Dose 3000 g/ha) | weed control effect, Chenopodiaceae (activity level) (Chenopodiaceae; Dose 3000 g/ha) | weed control effect, Amaranthus retroflexus (activity level) (Amaranthus retroflexus; Dose 3000 g/ha) | weed control effect, Rorippa indica (activity level) (Rorippa indica; Dose 3000 g/ha)

CCc1cccc(-c2nnc(C(F)(F)F)cc2OS(=O)(=O)c2nccs2)c1 [Compound 1-145]
10: weed control effect, Veronica polita (activity level) (Veronica polita; Dose 3000 g/ha) | weed control effect, Chenopodiaceae (activity level) (Chenopodiaceae; Dose 3000 g/ha) | weed control effect, Amaranthus retroflexus (activity level) (Amaranthus retroflexus; Dose 3000 g/ha) | weed control effect, Rorippa indica (activity level) (Rorippa indica; Dose 3000 g/ha)

C#Cc1ccc(-c2nnc(C(F)(F)F)cc2O)c(OC(C)=O)c1 [Compound 173]
10: weed control effect (activity level), Veronica polita (Veronica polita; dose 2000 g/ha) | weed control effect (activity level), Chenopodiaceae (Chenopodiaceae; dose 2000 g/ha) | weed control effect (activity level), Amaranthus retroflexus (Amaranthus retroflexus; dose 2000 g/ha) | weed control effect (activity level), Rorippa indica (Rorippa indica; dose 2000 g/ha)

Oc1cc(C(F)(F)F)nnc1-c1cnccc1F [Compound 964]
10: weed control effect (activity level), Veronica polita (Veronica polita; Dose 3000 g/ha) | weed control effect (activity level), Chenopodiaceae (Chenopodiaceae; Dose 3000 g/ha) | weed control effect (activity level), Amaranthus retroflexus (Amaranthus retroflexus; Dose 3000 g/ha) | weed control effect (activity level), Rorippa indica (Rorippa indica; Dose 3000 g/ha)

Oc1cc(C(F)(F)F)nnc1-c1cc2ccccc2o1 [Compound 613]
10: weed control effect (activity level), Veronica polita (Veronica polita; Dose 3000 g/ha) | weed control effect (activity level), Chenopodiaceae (Chenopodiaceae; Dose 3000 g/ha) | weed control effect (activity level), Amaranthus retroflexus (Amaranthus retroflexus; Dose 3000 g/ha) | weed control effect (activity level), Rorippa indica (Rorippa indica; Dose 3000 g/ha)

O=[N+]([O-])c1ccc(Cl)c(-c2nnc(C(F)(F)F)cc2O)c1 [Compound 69]
10: weed control effect (activity level), Veronica polita (Veronica polita; dose 1000 g/ha) | weed control effect (activity level), Chenopodiaceae (Chenopodiaceae; dose 1000 g/ha) | weed control effect (activity level), Amaranthus retroflexus (Amaranthus retroflexus; dose 1000 g/ha) | weed control effect (activity level), Rorippa indica (Rorippa indica; dose 1000 g/ha)

COC(=O)/C=C/c1nnc(C(F)(F)F)cc1O [Compound 1522]
10: weed control effect (activity level), Chenopodiaceae (Chenopodiaceae; Dose 3000 g/ha) | weed control effect (activity level), Amaranthus retroflexus (Amaranthus retroflexus; Dose 3000 g/ha)

Oc1cc(C(F)(F)F)nnc1-c1cccc(C(F)(F)F)c1 [Compound 92]
10: weed control effect (activity level), Veronica polita (Veronica polita; dose 1000 g/ha) | weed control effect (activity level), Chenopodiaceae (Chenopodiaceae; dose 1000 g/ha) | weed control effect (activity level), Amaranthus retroflexus (Amaranthus retroflexus; dose 1000 g/ha) | weed control effect (activity level), Rorippa indica (Rorippa indica; dose 1000 g/ha)

Cn1cccc1C(=O)Oc1cc(C(F)(F)F)nnc1-c1ccccc1 [Compound 1-105]
10: weed control effect, Veronica polita (activity level) (Veronica polita; Dose 3000 g/ha) | weed control effect, Chenopodiaceae (activity level) (Chenopodiaceae; Dose 3000 g/ha) | weed control effect, Amaranthus retroflexus (activity level) (Amaranthus retroflexus; Dose 3000 g/ha) | weed control effect, Rorippa indica (activity level) (Rorippa indica; Dose 3000 g/ha)

Cn1cc(-c2nnc(C(F)(F)F)cc2O)cn1 [Compound 839]
10: weed control effect (activity level), Veronica polita (Veronica polita; Dose 3000 g/ha) | weed control effect (activity level), Chenopodiaceae (Chenopodiaceae; Dose 3000 g/ha) | weed control effect (activity level), Amaranthus retroflexus (Amaranthus retroflexus; Dose 3000 g/ha) | weed control effect (activity level), Rorippa indica (Rorippa indica; Dose 3000 g/ha)

CCO/C=C/C(=O)Oc1cc(C(F)(F)F)nnc1-c1cccc(F)c1 [Compound 1-75]
10: weed control effect, Veronica polita (activity level) (Veronica polita; Dose 3000 g/ha) | weed control effect, Chenopodiaceae (activity level) (Chenopodiaceae; Dose 3000 g/ha) | weed control effect, Amaranthus retroflexus (activity level) (Amaranthus retroflexus; Dose 3000 g/ha) | weed control effect, Rorippa indica (activity level) (Rorippa indica; Dose 3000 g/ha)

Cc1ccc(-c2nnc(C(F)(F)F)cc2O)c(C)c1 [Compound 77]
10: weed control effect (activity level), Veronica polita (Veronica polita; dose 2000 g/ha) | weed control effect (activity level), Chenopodiaceae (Chenopodiaceae; dose 2000 g/ha) | weed control effect (activity level), Amaranthus retroflexus (Amaranthus retroflexus; dose 2000 g/ha) | weed control effect (activity level), Rorippa indica (Rorippa indica; dose 2000 g/ha)

Cc1ccc(-c2nnc(C(F)(F)F)cc2O)cc1F [Compound 56]
10: weed control effect (activity level), Veronica polita (Veronica polita; dose 1000 g/ha) | weed control effect (activity level), Chenopodiaceae (Chenopodiaceae; dose 1000 g/ha) | weed control effect (activity level), Amaranthus retroflexus (Amaranthus retroflexus; dose 1000 g/ha) | weed control effect (activity level), Rorippa indica (Rorippa indica; dose 1000 g/ha)

From patent US12568972B2, “Pyridazinol compounds and derivatives, preparation methods, herbicidal compositions and applications thereof” (Qingdao Kingagroot Chemical Compound Co., Ltd., priority 2018, dated 2026)
